One test has as its target T1, JAK2 (Homo sapiens, UniProt O60674).
T1 construct: endogenous in cells; host or cells: Molt4 (ATCC CRL-1582) and Ramos (ATCC CRL-1596), mixed lysate 1:2
In words: Kinobeads assay, JAK2. The class given is binding. The note with it: mixed Molt4/Ramos lysate, read-out: Inhibition values (IC50) JAK2. Here is the method: (§1) The compounds of the present invention as described in the previous examples were tested in a Kinobeads™ assay as described for ZAP-70 (WO-A 2007/137867). Briefly, test compounds (at various concentrations) and the affinity matrix with the immobilized aminopyrido-pyrimidine ligand 24 were added to cell lysate aliquots and allowed to bind to the proteins in the lysate sample. After the incubation time the beads with captured proteins were separated from the lysate. Bound proteins were then eluted and the presence of JAK1, JAK2, JAK3 and TYK2 was detected and quantified using specific antibodies in a dot blot procedure and the Odyssey infrared detection system. Dose response curves for individual kinases were generated and IC50 values calculated. Kinobeads™ assays for ZAP-70 (WO-A 2007/137867) and for kinase selectivity profiling (WO-A 2006/134056) have been previously described.
(§2) The affinity matrix was washed two times with 15 mL of lx DP buffer containing 0.2% NP40 (IGEPAL® CA-630, Sigma, #13021) and then resuspended in 1×DP buffer containing 0.2% NP40 (3% beads slurry).
(§3) 5×DP buffer: 250 mM Tris-HCl pH 7.4, 25% Glycerol, 7.5 mM MgCl2, 750 mM NaCl, 5 mM Na3VO4; filter the 5×DP buffer through a 0.22 μm filter and store in aliquots at −80° C. The 5×DP buffer is diluted with H2O to 1×DP buffer containing 1 mM DTT and 25 mM NaF.
(§4) Stock solutions of test compounds were prepared in DMSO. In a 96 well plate […] solution of diluted test compounds at 5 mM in DMSO were prepared. Starting with this solution a 1:3 dilution series (9 steps) was prepared. For control experiments (no test compound) a buffer containing 2% DMSO was used.
(§5) Molt4 cells (ATCC catalogue number CRL-1582) and Ramos cells (ATCC catalogue number CRL-1596) were grown in 1 L Spinner flasks (Integra Biosciences, #182101) in suspension in RPMI 1640 medium (Invitrogen, #21875-034) supplemented with 10% Fetal Bovine Serum (Invitrogen) at a density between 0.15×10^6 and 1.2×10^6 cells/mL. Cells were harvested by centrifugation, washed once with 1×PBS buffer (Invitrogen, #14190-094) and cell pellets were frozen in liquid nitrogen and subsequently stored at −80° C. Cells were homogenized in a Potter S homogenizer in lysis buffer: 50 mM Tris-HCl, 0.8% NP40, 5% glycerol, 150 mM NaCl, 1.5 mM MgCl2, 25 mM NaF, 1 mM sodium vanadate, 1 mM DTT, pH 7.5. One complete EDTA-free tablet (protease inhibitor cocktail, Roche Diagnostics, 1873580) per 25 mL buffer was added. The material was dounced 10 times using a mechanized POTTER S, transferred to 50 mL falcon tubes, incubated for 30 minutes on ice and spun down for 10 minutes at 20,000 g at 4° C. (10,000 rpm in Sorvall SLA600, precooled). The supernatant was transferred to an ultracentrifuge (UZ)-polycarbonate tube (Beckmann, 355654) and spun for 1 hour at 100.000 g at 4° C. (33.500 rpm in Ti50.2, precooled). The supernatant was transferred again to a fresh 50 mL falcon tube, the protein concentration was determined by a Bradford assay (BioRad) and samples containing 50 mg of protein per aliquot were prepared. The samples were immediately used for experiments or frozen in liquid nitrogen and stored frozen at −80° C.
(§6) Cell lysate (approximately 50 mg protein per plate) was thawed in a water bath at room temperature and then stored on ice. To the thawed cell lysate 1×DP 0.8% NP40 buffer containing protease inhibitors (1 tablet for 25 mL buffer; EDTA-free protease inhibitor cocktail; Roche Diagnostics 1873580) was added in order to reach a final protein concentration of 10 mg/mL total protein. The diluted cell lysate was stored on ice. Mixed Molt4/Ramos lysate was prepared by combining one volume of Molt4 lysate and two volumes of Ramos lysate (ratio 1:2).
(§7) To a 96 well filter plate (Multiscreen HTS, BV Filter Plates, Millipore #MSBVN1250) were added per well: 100 μL affinity matrix (3% beads slurry), […], of compound solution, and 50 μL of diluted lysate. […]

The target of a further test is T2, JAK3 (Homo sapiens, UniProt P52333).
T2 construct: endogenous in cells; host or cells: Molt4 (ATCC CRL-1582) and Ramos (ATCC CRL-1596), mixed lysate 1:2
T2 sequence (P52333 1-1124): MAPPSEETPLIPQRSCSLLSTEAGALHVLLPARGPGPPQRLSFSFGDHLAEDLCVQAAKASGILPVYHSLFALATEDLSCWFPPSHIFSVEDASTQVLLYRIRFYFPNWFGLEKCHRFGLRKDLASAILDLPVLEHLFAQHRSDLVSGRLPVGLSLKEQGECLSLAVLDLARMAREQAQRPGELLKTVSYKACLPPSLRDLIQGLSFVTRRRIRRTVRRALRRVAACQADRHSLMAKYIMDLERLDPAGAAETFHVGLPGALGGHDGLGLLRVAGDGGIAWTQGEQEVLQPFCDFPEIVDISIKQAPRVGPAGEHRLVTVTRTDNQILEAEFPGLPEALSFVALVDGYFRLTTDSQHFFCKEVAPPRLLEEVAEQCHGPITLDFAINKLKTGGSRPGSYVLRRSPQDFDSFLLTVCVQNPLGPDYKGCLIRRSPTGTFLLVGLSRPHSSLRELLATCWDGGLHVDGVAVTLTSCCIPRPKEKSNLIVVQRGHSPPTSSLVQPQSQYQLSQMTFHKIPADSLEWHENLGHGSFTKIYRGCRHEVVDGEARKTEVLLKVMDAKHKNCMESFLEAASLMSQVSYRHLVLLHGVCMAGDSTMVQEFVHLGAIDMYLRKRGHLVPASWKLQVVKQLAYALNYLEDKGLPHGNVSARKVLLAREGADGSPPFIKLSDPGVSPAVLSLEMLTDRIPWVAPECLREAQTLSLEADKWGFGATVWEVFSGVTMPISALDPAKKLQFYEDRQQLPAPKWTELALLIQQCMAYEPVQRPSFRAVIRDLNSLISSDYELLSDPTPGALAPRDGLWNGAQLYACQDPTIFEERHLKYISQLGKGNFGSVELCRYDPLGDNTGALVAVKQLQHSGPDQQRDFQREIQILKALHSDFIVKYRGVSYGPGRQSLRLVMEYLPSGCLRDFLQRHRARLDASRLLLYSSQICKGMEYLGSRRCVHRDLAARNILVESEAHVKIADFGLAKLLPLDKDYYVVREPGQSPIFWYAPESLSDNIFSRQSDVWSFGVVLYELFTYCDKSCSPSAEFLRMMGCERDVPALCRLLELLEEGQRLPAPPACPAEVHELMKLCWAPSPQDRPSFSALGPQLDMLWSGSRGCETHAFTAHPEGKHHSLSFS
In words: Kinobeads assay, JAK3. The class given is binding. The note with it: mixed Molt4/Ramos lysate, read-out: Inhibition values (IC50) JAK3. Here is the method:
as §1, §2, §3, §4, §5, §6, §7

Some results are limits rather than exact numbers.

One may read the IC50 as the concentration needed to halve the response being measured.

T1 sequence (O60674 whole entry): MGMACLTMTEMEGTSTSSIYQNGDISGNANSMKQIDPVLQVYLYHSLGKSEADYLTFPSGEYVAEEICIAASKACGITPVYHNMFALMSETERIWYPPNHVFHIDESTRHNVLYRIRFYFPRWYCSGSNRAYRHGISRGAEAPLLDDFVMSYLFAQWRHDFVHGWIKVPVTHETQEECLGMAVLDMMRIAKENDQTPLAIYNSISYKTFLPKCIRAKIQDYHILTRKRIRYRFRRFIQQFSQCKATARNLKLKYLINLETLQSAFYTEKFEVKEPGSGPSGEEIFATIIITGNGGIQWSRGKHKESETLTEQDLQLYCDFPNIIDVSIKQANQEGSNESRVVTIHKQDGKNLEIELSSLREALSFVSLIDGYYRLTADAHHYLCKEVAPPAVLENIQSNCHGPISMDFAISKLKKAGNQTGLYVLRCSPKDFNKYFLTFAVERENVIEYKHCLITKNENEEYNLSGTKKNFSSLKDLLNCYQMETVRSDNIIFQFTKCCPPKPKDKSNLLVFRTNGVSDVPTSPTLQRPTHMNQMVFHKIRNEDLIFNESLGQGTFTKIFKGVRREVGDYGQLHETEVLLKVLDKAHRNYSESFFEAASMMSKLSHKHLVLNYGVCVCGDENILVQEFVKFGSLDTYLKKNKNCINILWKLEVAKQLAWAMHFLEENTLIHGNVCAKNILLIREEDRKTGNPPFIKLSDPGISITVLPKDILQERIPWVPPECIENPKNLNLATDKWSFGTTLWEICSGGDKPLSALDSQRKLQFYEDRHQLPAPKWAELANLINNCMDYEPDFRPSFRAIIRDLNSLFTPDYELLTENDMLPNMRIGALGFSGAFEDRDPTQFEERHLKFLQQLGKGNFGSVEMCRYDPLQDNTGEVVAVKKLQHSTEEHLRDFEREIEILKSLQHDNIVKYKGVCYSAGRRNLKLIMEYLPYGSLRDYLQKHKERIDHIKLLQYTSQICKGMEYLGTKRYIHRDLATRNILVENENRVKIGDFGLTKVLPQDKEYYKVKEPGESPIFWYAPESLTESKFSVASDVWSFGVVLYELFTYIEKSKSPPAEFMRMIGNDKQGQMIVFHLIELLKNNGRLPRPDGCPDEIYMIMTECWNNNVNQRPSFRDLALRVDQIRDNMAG

In the case of `O=C(Cn1cc(Nc2ncc(Cl)c(N[C@H](CO)c3ccccc3F)n2)cn1)N1CCOCC1` [Compound 103], the half-inhibitory concentration (IC50) at JAK2 is 1 to 10 µM; on JAK3, under 0.1 µM.
In the case of `Cn1cc(Nc2ncc(Cl)c(NC(C)(CO)c3ccccc3)n2)cn1` (stereo not shown) [Compound 7], the figures for the IC50 at JAK2 and on JAK3 were at least 10 µM and 0.1 to 1 µM, respectively.
As for `CC[C@@H](Nc1nc(Nc2cnn(C)c2)ncc1Cl)c1ccccc1` [Compound 5], the 50% inhibitory concentration (IC50) lay in the range of 1 to 10 µM on JAK2 and 0.1 to 1 µM on JAK3.
Regarding `COc1ccccc1[C@@H](CO)Nc1nc(Nc2cnn(C(C)C)c2)ncc1Cl` [Compound 105], the figures for the half-inhibitory concentration (IC50) on JAK2 and at JAK3 were 0.1 to 1 µM and under 0.1 µM, respectively.
As to `CCn1cc(Nc2ncc(Cl)c(N[C@H](CO)c3cccnc3)n2)cn1` [Compound 97], the IC50 at JAK2 is 1 to 10 µM; at JAK3, under 0.1 µM.
For `OCCn1cc(Nc2ncc(F)c(N[C@H](CO)c3cc(F)ccc3F)n2)cn1` [Compound 147], the IC50 on JAK2 is 0.1 to 1 µM; on JAK3 it was under 0.1 µM.
With `CCC(Nc1nc(Nc2cnn(C)c2)ncc1Cl)c1ccccc1F` (stereo not shown) [Compound 125], the IC50 at JAK2 lay in the range of 1 to 10 µM; at JAK3 it was 0.1 to 1 µM.
For `CC(C)n1cc(Nc2ncc(Cl)c(N[C@H](CO)c3ccccc3F)n2)cn1` [Compound 110], the IC50 on JAK2 was 0.1 to 1 µM; on JAK3 it was under 0.1 µM.
On to `Cn1cc(Nc2ncc(C(F)(F)F)c(NC(C)(CO)c3ccccc3)n2)cn1` (stereo not shown) [Compound 8], for which the IC50 at JAK2 is at least 10 µM; on JAK3, 0.1 to 1 µM.
`Cn1cc(-c2cc(F)cc([C@@H](CO)Nc3nc(Nc4cnn(CCO)c4)ncc3F)c2)cn1` [Compound 153]: the IC50 is at least 10 µM at JAK2 and 0.1 to 1 µM on JAK3.
For the molecule `CNC(=O)Cn1cc(Nc2ncc(Cl)c(NC(CO)c3ccccc3C(F)(F)F)n2)cn1` (stereo not shown) [Compound 131], the figures for the half-inhibitory concentration (IC50) at JAK2 and on JAK3 were 1 to 10 µM and 0.1 to 1 µM, respectively.
For the molecule `O=C(NCC(F)(F)F)C(Nc1nc(Nc2cnn(CCO)c2)ncc1Cl)c1ccccc1F` (stereo not shown) [Compound 128], the IC50 at JAK2 is at least 10 µM; at JAK3, 0.1 to 1 µM.
Take `NC(=O)Cn1cc(Nc2ncc(F)c(N[C@H](CO)c3cc(F)cc(F)c3)n2)cn1` [Compound 160]: the IC50 on JAK2 is 1 to 10 µM; on JAK3 it was under 0.1 µM.
Regarding `NC(=O)Cn1cc(Nc2ncc(Cl)c(N[C@H](CO)c3cc(F)ccc3F)n2)cn1` [Compound 140], the IC50 was 0.1 to 1 µM on JAK2 and under 0.1 µM on JAK3.
In the case of `CCn1cc(Nc2ncc(Cl)c(N[C@H](CO)c3ccccc3F)n2)cn1` [Compound 109], the IC50 on JAK2 is 1 to 10 µM; at JAK3, under 0.1 µM.
For the molecule `Cn1cc(-c2cc(F)cc([C@@H](CO)Nc3nc(Nc4cnn(CCO)c4)ncc3Cl)c2)cn1` [Compound 152], the IC50 is 1 to 10 µM on JAK2 and under 0.1 µM at JAK3.
For `NC(=O)Cn1cc(Nc2ncc(Cl)c(N[C@H](CO)c3cc(F)cc(F)c3)n2)cn1` [Compound 144], in that order: 0.1 to 1 µM and under 0.1 µM.
The like results for `NCCCn1cc(Nc2ncc(Cl)c(N[C@H](CO)c3ccccc3)n2)cn1` [Compound 113] were, in that order, 1 to 10 µM and under 0.1 µM.
`Cn1cc(Nc2ncc(Cl)c(NC(CO)c3cccc(N4CCOCC4=O)c3)n2)cn1` (stereo not shown) [Compound 124]: the IC50 at JAK2 was at least 10 µM; on JAK3 it was under 0.1 µM.
`Cc1cnc(Nc2cnn(CC(=O)N(C)C)c2)nc1N[C@H](CO)c1ccccc1` [Compound 134]: the IC50 was 1 to 10 µM on JAK2 and under 0.1 µM at JAK3.
The like results for `CNC(=O)Cn1cc(Nc2ncc(Cl)c(NC(CO)c3cc(F)cc(F)c3)n2)cn1` (stereo not shown) [Compound 123] were, in that order, 1 to 10 µM and under 0.1 µM.
In the case of `CNC(=O)Cn1cc(Nc2ncc(Cl)c(N[C@H](CO)c3cc(F)ccc3F)n2)cn1` [Compound 141], the results for the IC50 on JAK2 and at JAK3 were 0.1 to 1 µM and under 0.1 µM, respectively.
On to `Cn1cc(Nc2ncc(Cl)c(NC(CO)c3cc(F)cc(F)c3)n2)cn1` (stereo not shown) [Compound 121], for which the IC50 on JAK2 was 1 to 10 µM; at JAK3, under 0.1 µM.
Regarding `Cn1cc(Nc2ncc(Cl)c(NC(CO)c3cc(F)ccc3F)n2)cn1` (stereo not shown) [Compound 129], the results for the IC50 on JAK2 and at JAK3 were 0.1 to 1 µM and under 0.1 µM, respectively.
Regarding `Cn1cc(Nc2ncc(Cl)c(N[C@H](CO)c3cccc(N4CCOCC4=O)c3F)n2)cn1` [Compound 162], the values for the IC50 at JAK2 and at JAK3 were at least 10 µM and under 0.1 µM, respectively.
Regarding `OCCn1cc(Nc2ncc(F)c(N[C@H](CO)c3ccccc3)n2)cn1` [Compound 10], the IC50 was at least 10 µM on JAK2 and under 0.1 µM on JAK3.
As to `OCCn1cc(Nc2ncc(Cl)c(N[C@H](CO)c3ccccc3)n2)cn1` [Compound 9], the IC50 is 1 to 10 µM at JAK2 and under 0.1 µM on JAK3.
Turning to `OC[C@@H](Nc1nc(Nc2cnn(CC(F)F)c2)ncc1Cl)c1ccccc1F` [Compound 165], the results for the IC50 on JAK2 and at JAK3 were 1 to 10 µM and under 0.1 µM, respectively.
As to `C[C@@H](CO)NC(=O)Cn1cc(Nc2ncc(Cl)c(N[C@H](CO)c3ccccc3F)n2)cn1` [Compound 116], the IC50 at JAK2 is 1 to 10 µM; on JAK3 it was under 0.1 µM.
For `CNC(=O)Cn1cc(Nc2ncc(F)c(N[C@H](CO)c3cc(F)ccc3F)n2)cn1` [Compound 148], in that order: 1 to 10 µM and under 0.1 µM.
With `OCCn1cc(Nc2ncc(Cl)c(NC(CO)c3ccccc3Cl)n2)cn1` (stereo not shown) [Compound 120], the concentration for half-maximal inhibition (IC50) was 1 to 10 µM on JAK2 and under 0.1 µM at JAK3.
The like results for `Cn1cc(Nc2ncc(Cl)c(N[C@H](CO)c3cc(F)ccc3F)n2)cn1` [Compound 139] were, in that order, 0.1 to 1 µM and under 0.1 µM.

The record behind these values is patent US20140179664A1, “Heterocyclyl Pyrimidine Analogues As JAK Inhibitors” (Cellzome Limited, priority 2011, published 2014).
